{"source": "paper PMC12929930", "about": "“Conformational Trajectory of the Molecular Chameleon Grazoprevir From Formulation to Target‐Bound” (Chemistry (Weinheim an Der Bergstrasse, Germany), 2025)", "key": {"[1]": {"conditions": "cited from earlier work; for SA 3D PSA variation between solution conformations / spread in Rgyr for the solution ensembles: solution ensembles", "text": "Grazoprevir (Figure 1a) is a second‐generation hepatitis C virus (HCV) nonstructural 3/4A (NS3/NS4A) protease inhibitor developed by Merck in 2012 and approved by the FDA in 2016 as part of an orally administered combination therapy with elbasvir. Like most NS3/NS4A protease inhibitors, grazoprevir is orally available despite its limited water solubility (Table S21). The potential chameleonicity of grazoprevir has not yet been structurally characterized. Determining the structures of bRo5 inhibitors like grazoprevir in various states is crucial for understanding their chame ... || For bRo5‐drugs, 3D descriptors such as the R gyr as a measure of size instead of molecular weight, and the SA 3D PSA instead of the number of hydrogen bond donors and acceptors, often provide a better view to explain their aqueous solubility and membrane permeability. Even though the exact values of the R gyr and SA 3D PSA for a single conformation might not be informative, they can give a perspective when compared for conformations between solvents or between similar compounds [6, 23]. In solution the SA 3D PSA varies by 79 Å^2 (Supporting information Figure S13) between the c ..."}, "MCDCK cell monolayers [2]": {"tested_on": "MCDCK cell monolayers", "format": "in vitro ADME", "text": "(§1) Solubility and Cell permeability\n(§2) The thermodynamic aqueous solubility, LogD and cell permeability across MCDCK cell monolayers\n(§3) Table S21. MCDCK permeability data and efflux ratios (ERs) for grazoprevir.\n(§4) Solubility LogD7.4[b] PappAB (x10-6 ER[d]\n[a] Determined in aqueous potassium phosphate buffer at pH 7.4. Values are means ± std from three repeats.\n[b] Determined using a miniaturized shake-flask procedure. Values are means from three repeats.\n[c] Papp AB: permeability in the apical-to-basolateral (AB) direction across MCDCK cell monolayers. Values are\nmeans + std from three repeats.\n[d] ER: efflux ratio (Papp BA/Papp AB)."}, "[3]": {"format": "physicochemical", "conditions": "pH 7.4", "text": "as §1, §2, §3, §4\n[a] Determined in aqueous potassium phosphate buffer at pH 7.4. Values are means ± std from three repeats. […]"}, "[4]": {"format": "physicochemical", "conditions": "pH 7.4", "text": "as §1, §2, §3\nSolubility LogD7.4[b] PappAB (x10-6 ER[d] […]\n[b] Determined using a miniaturized shake-flask procedure. Values are means from three repeats. […]", "remark": "listed apart in the source"}, "MCDCK cell monolayers [5]": {"tested_on": "MCDCK cell monolayers", "conditions": "comparison value quoted in Conclusions; not in the printed Table S21; cited from earlier work", "text": "This study presents a comprehensive analysis of a macrocyclic drug's conformational journey by experimental means; from the solid state, through solution environments, to the target‐bound state. […] By determining solution‐state ensembles of grazoprevir in both polar and apolar environments—mimicking extracellular and membrane‐like conditions—and comparing these to previously repo ..."}, "[6]": {"conditions": "conformations assessed computationally"}}, "note": "Read-outs that look alike come from different tables or passages of the source.", "data": [{"smiles": "C=C[C@@H]1C[C@]1(NC(=O)[C@@H]1C[C@@H](Oc2ncc(OC)c3ccc(Cl)cc23)CN1C(=O)[C@@H](NC(=O)OC(C)(C)C)C(C)(C)C)C(=O)NS(=O)(=O)C1CC1", "note": "[asunaprevir]", "values": [{"measurement": "SA 3D PSA variation between solution conformations", "setting": "[1]", "result": 88, "unit": "Å^2"}, {"measurement": "spread in Rgyr for the solution ensembles", "setting": "[1]", "result": 1.22, "unit": "Å"}]}, {"smiles": "C=C[C@@H]1C[C@]1(NC(=O)[C@@H]1C[C@@H]2CN1C(=O)[C@H](C(C)(C)C)NC(=O)O[C@@H]1C[C@H]1CCCCCc1nc3ccc(OC)cc3nc1O2)C(=O)NS(=O)(=O)C1CC1.O", "note": "[grazoprevir, Grazoprevir]", "values": [{"measurement": "ER (efflux ratio, Papp BA/Papp AB)", "setting": "MCDCK cell monolayers [2]", "result": 3.1}, {"measurement": "PappAB", "setting": "MCDCK cell monolayers [2]", "result": "5.9 ± 0.89 x10-6 cm/s"}, {"measurement": "passive membrane permeability", "setting": "MCDCK cell monolayers [2]", "result": 5.9, "unit": "×10⁻⁶ cm/s"}, {"measurement": "Solubility", "setting": "[3]", "result": "12.9 ± 2.6", "unit": "µM"}, {"measurement": "LogD7.4", "setting": "[4]", "result": 3.4}]}, {"smiles": "Cc1cnc(C(=O)N[C@H]2CCCCC/C=C\\[C@@H]3C[C@@]3(C(=O)NS(=O)(=O)C3CC3)NC(=O)[C@@H]3C[C@@H](Oc4nc5ccccc5c5ccccc45)CN3C2=O)cn1", "note": "[paritaprevir]", "values": [{"measurement": "Rgyr range for the solution conformations (polar-to-apolar span)", "setting": "[1]; [6]", "result": 0.36, "unit": "Å"}, {"measurement": "SA 3D PSA polar-to-apolar span", "setting": "[1]; [6]", "result": 76, "unit": "Å^2"}]}, {"smiles": "COc1ccc2c(O[C@@H]3C[C@H]4C(=O)N[C@]5(C(=O)NS(=O)(=O)C6CC6)C[C@H]5/C=C\\CCCCN(C)C(=O)[C@@H]4C3)cc(-c3nc(C(C)C)cs3)nc2c1C", "note": "[simeprevir]", "values": [{"measurement": "passive membrane permeability", "setting": "MCDCK cell monolayers [5]", "result": 0.5, "unit": "×10⁻⁶ cm/s"}, {"measurement": "SA 3D PSA variation between solution conformations", "setting": "[1]", "result": 72, "unit": "Å^2"}, {"measurement": "spread in Rgyr for the solution ensembles", "setting": "[1]", "result": 1.11, "unit": "Å"}]}]}
